Measurements as given in ChEMBL document CHEMBL1268847, “Discovery of orally bioavailable imidazo[1,2-a]pyrazine-based Aurora kinase inhibitors” (Bioorg Med Chem Lett, 2010).
pEC50, pIC50: −log10 of the molar value.

Tests used:
[1] = target: T1, Aurora kinase A (Homo sapiens, UniProt O14965); test: Inhibition of Aurora A
T1 sequence (O14965 whole entry): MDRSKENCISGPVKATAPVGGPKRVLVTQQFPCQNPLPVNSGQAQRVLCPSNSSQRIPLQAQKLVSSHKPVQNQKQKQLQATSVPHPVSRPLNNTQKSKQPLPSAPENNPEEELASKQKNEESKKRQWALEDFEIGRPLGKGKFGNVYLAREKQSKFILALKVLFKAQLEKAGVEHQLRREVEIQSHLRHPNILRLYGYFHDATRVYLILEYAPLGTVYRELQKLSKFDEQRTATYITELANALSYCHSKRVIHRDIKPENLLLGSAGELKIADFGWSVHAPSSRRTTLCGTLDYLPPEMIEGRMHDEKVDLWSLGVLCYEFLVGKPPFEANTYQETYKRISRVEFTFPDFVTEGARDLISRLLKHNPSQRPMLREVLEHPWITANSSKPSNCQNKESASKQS

[2] = Inhibition of Aurora kinase assessed as reduction histone H3 Ser10 phosphorylation by cell based assay
[3] = target: Aurora kinase B (Homo sapiens, UniProt Q96GD4); test: Inhibition of Aurora B
[4] = AUC (0-6 hrs) in rat at 10 mg/kg, po; assay type: ADME, organism-based; set-up: time < 6 hr, dose 10 mg/kg, route oral; conditions: plasma
[5] = target: T2, Serine/threonine-protein kinase Chk1 (Homo sapiens, UniProt O14757); test: Inhibition of CHK1
T2 sequence (O14757 whole entry): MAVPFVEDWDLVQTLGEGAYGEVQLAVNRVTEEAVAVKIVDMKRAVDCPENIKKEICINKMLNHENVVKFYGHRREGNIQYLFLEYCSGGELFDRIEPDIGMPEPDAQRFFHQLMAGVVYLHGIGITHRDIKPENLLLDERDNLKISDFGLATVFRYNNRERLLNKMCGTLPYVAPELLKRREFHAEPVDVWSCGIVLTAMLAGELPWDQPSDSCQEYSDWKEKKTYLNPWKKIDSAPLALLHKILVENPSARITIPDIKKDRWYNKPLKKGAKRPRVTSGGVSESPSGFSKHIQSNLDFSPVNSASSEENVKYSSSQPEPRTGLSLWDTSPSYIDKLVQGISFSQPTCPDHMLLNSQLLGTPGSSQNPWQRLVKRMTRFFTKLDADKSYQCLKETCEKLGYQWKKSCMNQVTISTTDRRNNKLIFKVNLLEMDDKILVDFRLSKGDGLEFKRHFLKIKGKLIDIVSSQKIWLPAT

[6] = target: Vascular endothelial growth factor receptor 2 (Homo sapiens, UniProt P35968); test: Inhibition of VEGFR2
[7] = target: T3, Interleukin-1 receptor-associated kinase 4 (Homo sapiens, UniProt Q9NWZ3); test: Inhibition of IRK4
T3 sequence (Q9NWZ3 whole entry): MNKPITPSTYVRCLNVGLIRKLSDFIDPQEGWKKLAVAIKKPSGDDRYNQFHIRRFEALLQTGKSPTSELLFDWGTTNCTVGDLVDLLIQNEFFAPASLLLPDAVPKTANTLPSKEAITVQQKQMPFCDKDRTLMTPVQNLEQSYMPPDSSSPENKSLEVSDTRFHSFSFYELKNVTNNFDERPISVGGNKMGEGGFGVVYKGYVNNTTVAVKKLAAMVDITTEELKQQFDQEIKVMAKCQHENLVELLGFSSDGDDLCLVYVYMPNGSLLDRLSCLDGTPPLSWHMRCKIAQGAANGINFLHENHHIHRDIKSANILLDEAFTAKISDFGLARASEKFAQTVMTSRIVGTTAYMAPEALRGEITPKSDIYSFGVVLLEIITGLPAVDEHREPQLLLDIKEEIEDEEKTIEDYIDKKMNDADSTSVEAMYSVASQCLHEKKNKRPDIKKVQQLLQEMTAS

[8] = target: Tyrosine-protein kinase Lck (Homo sapiens, UniProt P06239); test: Inhibition of LCK
[9] = target: Ribosomal protein S6 kinase alpha-3 (Homo sapiens, UniProt P51812); test: Inhibition of RSK2
Chain of Ribosomal protein S6 kinase alpha-3 (P51812 whole entry): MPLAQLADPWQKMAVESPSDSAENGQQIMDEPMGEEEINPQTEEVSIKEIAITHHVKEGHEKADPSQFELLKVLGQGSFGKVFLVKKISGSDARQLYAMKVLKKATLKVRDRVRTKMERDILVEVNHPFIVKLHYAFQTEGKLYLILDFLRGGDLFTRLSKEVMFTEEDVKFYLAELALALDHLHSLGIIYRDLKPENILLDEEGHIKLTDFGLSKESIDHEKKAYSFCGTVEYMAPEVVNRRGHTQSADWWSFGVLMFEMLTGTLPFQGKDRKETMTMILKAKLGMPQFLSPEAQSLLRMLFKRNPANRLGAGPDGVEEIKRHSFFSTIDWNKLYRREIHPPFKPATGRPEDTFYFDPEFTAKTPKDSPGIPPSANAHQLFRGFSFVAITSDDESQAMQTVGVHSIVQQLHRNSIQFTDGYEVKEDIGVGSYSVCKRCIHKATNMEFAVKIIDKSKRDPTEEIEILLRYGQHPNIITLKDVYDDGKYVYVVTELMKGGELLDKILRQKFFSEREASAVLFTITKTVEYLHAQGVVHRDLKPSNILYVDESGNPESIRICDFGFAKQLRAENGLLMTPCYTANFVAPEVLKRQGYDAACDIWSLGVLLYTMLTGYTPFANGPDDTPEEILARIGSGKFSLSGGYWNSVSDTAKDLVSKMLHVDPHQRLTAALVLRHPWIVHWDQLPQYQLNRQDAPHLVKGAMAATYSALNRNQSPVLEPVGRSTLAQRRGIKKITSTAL

Chain of Aurora kinase B (Q96GD4 whole entry): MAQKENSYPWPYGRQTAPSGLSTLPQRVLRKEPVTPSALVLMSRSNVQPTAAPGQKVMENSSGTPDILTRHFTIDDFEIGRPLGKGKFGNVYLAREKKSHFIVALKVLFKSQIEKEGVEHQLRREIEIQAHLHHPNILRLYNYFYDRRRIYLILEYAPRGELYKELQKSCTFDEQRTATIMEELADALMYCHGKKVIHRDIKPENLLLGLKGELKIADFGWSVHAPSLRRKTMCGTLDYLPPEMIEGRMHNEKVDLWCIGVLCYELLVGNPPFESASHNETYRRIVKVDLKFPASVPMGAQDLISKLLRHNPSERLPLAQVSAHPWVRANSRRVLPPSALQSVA
Chain of Tyrosine-protein kinase Lck (P06239 whole entry): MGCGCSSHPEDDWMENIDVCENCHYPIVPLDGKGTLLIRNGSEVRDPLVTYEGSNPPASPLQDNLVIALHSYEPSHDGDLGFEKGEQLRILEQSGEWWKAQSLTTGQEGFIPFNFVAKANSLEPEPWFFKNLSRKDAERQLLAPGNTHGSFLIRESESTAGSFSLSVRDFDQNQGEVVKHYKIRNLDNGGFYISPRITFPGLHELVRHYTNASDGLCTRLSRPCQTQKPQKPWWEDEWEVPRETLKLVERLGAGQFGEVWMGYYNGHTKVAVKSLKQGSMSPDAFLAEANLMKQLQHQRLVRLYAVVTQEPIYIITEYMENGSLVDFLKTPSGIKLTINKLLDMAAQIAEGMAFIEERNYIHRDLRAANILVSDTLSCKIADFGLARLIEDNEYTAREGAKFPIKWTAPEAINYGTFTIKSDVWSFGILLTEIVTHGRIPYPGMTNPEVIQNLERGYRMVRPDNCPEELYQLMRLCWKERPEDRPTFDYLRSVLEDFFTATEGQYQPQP
Chain of Vascular endothelial growth factor receptor 2 (P35968 whole entry): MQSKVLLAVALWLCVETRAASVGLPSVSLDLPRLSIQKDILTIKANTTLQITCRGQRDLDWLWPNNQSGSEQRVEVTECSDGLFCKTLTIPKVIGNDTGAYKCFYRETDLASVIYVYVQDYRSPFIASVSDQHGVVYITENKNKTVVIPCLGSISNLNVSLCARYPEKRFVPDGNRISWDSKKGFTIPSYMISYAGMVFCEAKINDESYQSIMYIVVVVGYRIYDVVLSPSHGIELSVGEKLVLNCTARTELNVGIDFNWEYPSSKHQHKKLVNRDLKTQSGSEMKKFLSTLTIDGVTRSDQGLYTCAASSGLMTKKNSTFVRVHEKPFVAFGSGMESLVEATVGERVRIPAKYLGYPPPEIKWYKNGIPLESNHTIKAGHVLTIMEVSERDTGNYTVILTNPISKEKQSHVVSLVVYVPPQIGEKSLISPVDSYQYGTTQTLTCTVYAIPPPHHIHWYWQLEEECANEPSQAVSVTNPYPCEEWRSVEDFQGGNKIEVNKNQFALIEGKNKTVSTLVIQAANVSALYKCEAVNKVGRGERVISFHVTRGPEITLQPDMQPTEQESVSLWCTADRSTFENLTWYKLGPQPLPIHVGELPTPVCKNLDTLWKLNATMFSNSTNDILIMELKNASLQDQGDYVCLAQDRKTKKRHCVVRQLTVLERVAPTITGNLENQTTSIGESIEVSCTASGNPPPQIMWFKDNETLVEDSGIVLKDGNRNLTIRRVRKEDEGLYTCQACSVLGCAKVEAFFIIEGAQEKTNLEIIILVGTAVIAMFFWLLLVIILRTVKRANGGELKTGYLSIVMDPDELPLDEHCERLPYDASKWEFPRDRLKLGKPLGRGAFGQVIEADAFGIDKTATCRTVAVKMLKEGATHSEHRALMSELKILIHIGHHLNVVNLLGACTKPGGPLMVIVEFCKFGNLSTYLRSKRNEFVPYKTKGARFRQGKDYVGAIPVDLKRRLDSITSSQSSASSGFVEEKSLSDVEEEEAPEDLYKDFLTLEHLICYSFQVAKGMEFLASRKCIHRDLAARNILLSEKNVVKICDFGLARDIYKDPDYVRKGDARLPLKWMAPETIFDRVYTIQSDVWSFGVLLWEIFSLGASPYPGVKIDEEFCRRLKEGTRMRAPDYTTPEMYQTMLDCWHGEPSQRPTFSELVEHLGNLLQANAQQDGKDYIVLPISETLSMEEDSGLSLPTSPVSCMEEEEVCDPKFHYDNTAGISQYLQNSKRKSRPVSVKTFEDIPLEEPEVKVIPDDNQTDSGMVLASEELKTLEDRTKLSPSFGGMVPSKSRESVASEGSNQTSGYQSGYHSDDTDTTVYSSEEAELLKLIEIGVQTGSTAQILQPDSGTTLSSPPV

pIC50 [1] | pEC50 [2] | pIC50 [3] | AUC(0-t) at 6 h [4] | pIC50 [5] | pIC50 [6] | pIC50 [7] | pIC50 [8] | pIC50 [9] | Compound
≥ 8.40 | < 6.00 | ≥ 7.89 |  |  |  |  |  |  | Cc1cn2c(-c3cn[nH]c3)cnc2c(Nc2cc(CN3CCOC[C@@H]3CO)ns2)n1
≥ 8.40 | 6.71 | ≥ 7.89 | 0.4 µM·h |  |  |  |  |  | Cc1cn2c(-c3cn[nH]c3)cnc2c(Nc2cc(CN3CCOCC34CCC4)ns2)n1
≥ 8.40 | < 6.30 | ≥ 7.89 |  |  |  |  |  |  | Cc1cn2c(-c3cn[nH]c3)cnc2c(Nc2cc(CN3CCN(S(C)(=O)=O)CC3)ns2)n1
≥ 8.40 | 6.60 | ≥ 7.89 |  |  |  |  |  |  | Cc1cn2c(-c3cn[nH]c3)cnc2c(Nc2cc(CN3CCOC(C)(C)C3)ns2)n1
≥ 8.40 | < 6.00 | ≥ 7.89 |  |  |  |  |  |  | Cc1cn2c(-c3cn[nH]c3)cnc2c(Nc2cc(CN3CCN(C)CC3=O)ns2)n1
≥ 8.40 | 6.59 | ≥ 7.89 | 3.9 µM·h |  |  |  |  |  | Cc1cn2c(-c3cn[nH]c3)cnc2c(Nc2cc(CN3C[C@H](C)OC[C@@H]3C)ns2)n1
≥ 8.40 | 7.15 | ≥ 7.89 | 1.3 µM·h |  |  |  |  |  | Cc1cn2c(-c3cn[nH]c3)cnc2c(Nc2cc(C(C)N3CCOC(C)(C)C3)ns2)n1 (racemic)

The next lines start with the compound.

Compound | pIC50 [1] | pEC50 [2] | pIC50 [3] | AUC(0-t) at 6 h [4] | pIC50 [5] | pIC50 [6] | pIC50 [7] | pIC50 [8] | pIC50 [9]
CCN(Cc1cc(Nc2nc(C)cn3c(-c4cn[nH]c4)cnc23)sn1)C(C)(C)CO | ≥ 8.40 | 7.62 | ≥ 7.89 |  | 7.89 | ≥ 9.00 | 8.10 | ≥ 9.00 | 6.74
Cc1cc(Nc2nc(C)cn3c(-c4cn[nH]c4)cnc23)sn1 |  | 6.60 | ≥ 7.89 |  |  |  |  | 6.25 | 
CCOC(=O)N1CCN(Cc2cc(Nc3nc(C)cn4c(-c5cn[nH]c5)cnc34)sn2)CC1 | ≥ 8.40 | 6.25 | ≥ 7.89 | 0.38 µM·h |  |  |  |  | 
COCC(c1cc(Nc2nc(C)cn3c(-c4cn[nH]c4)cnc23)sn1)N1CCOCC1 (racemic) | ≥ 8.40 | 7.08 | ≥ 7.89 | 2.3 µM·h |  |  |  |  | 
Cc1cn2c(-c3cn[nH]c3)cnc2c(Nc2cc([C@H](C)N3C[C@@H](C)O[C@@H](C)C3)ns2)n1 |  | 6.66 |  | 1.1 µM·h |  |  |  |  | 
Cc1cn2c(-c3cn[nH]c3)cnc2c(Nc2cc(CN3CCN(CCO)CC3)ns2)n1 | ≥ 8.40 | < 6.00 | ≥ 7.89 |  |  |  |  |  | 
Cc1cn2c(-c3cn[nH]c3)cnc2c(Nc2cc(C3(N4C[C@@H](C)O[C@@H](C)C4)CC3)ns2)n1 | 7.35 | 6.13 | 7.30 | 0.3 µM·h |  |  |  |  | 
CCNC(=O)N1CCN(Cc2cc(Nc3nc(C)cn4c(-c5cn[nH]c5)cnc34)sn2)CC1 | ≥ 8.40 | < 6.00 | ≥ 7.89 |  |  |  |  |  | 
